# Test results from ChEMBL document CHEMBL1201862, “PubChem BioAssay data set” (2004).
#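 Briefly, cells in 96-well plates were exposed to five compound concentrations for 48 h, and endpoints were estimated by linear interpolation. Here, GI50 denotes the concentration required for 50% inhibition of growth.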 The source made the active and inactive calls. Rule as the data show it: active = GI50 up to about 1.1 µM and inactive = higher.
# Legend:
# Test in all cases: NCI-60 cell line screen, 48 h
# KM-20L2 = test system: KM-20L2
# HCT-15 = test system: HCT-15
# OVCAR-8 = test system: OVCAR-8
# UACC-257 = test system: UACC-257
# SNB-75 = test system: SNB-75
# HT-29 = test system: HT-29
# SK-MEL-5 = test system: SK-MEL-5
# OVCAR-4 = test system: OVCAR-4
# KM12 = test system: KM12
# RPMI-8226 = test system: RPMI-8226
# NCI-H226 = test system: NCI-H226
# HCC 2998 = test system: HCC 2998
# NCI-H23 = test system: NCI-H23
# SW-620 = test system: SW-620
# MOLT-4 = test system: MOLT-4
# OVCAR-3 = test system: OVCAR-3
# CAKI-1 = test system: CAKI-1
# Hs-578T = test system: Hs-578T
# UACC-62 = test system: UACC-62
# U-251 = test system: U-251
# SR = test system: SR
# SK-OV-3 = test system: SK-OV-3
# A549 = test system: A549
# A498 = test system: A498
# SK-MEL-28 = test system: SK-MEL-28
# MCF7 = test system: MCF7
# HCT-116 = test system: HCT-116
# SF-539 = test system: SF-539
# NCI-H522 = test system: NCI-H522
# MDA-MB-435 = test system: MDA-MB-435
# LOX IMVI = test system: LOX IMVI
# HOP-92 = test system: HOP-92
# EKVX = test system: EKVX
# SN12C = test system: SN12C
# OVCAR-5 = test system: OVCAR-5
# SK-MEL-2 = test system: SK-MEL-2
# IGROV-1 = test system: IGROV-1
# Malme-3M = test system: Malme-3M
# RXF 393 = test system: RXF 393
# T47D = test system: T47D
# HL-60 = test system: HL-60
# UO-31 = test system: UO-31
# M14 = test system: M14
# 786-0 = test system: 786-0
# NCI/ADR-RES = test system: NCI/ADR-RES
# MDA-N = test system: MDA-N
# DU-145 = test system: DU-145
# PC-3 = test system: PC-3
# TK-10 = test system: TK-10
# MDA-MB-231 = test system: MDA-MB-231
# CCRF-CEM = test system: CCRF-CEM
# NCI-H460 = test system: NCI-H460
# HOP-62 = test system: HOP-62
# COLO 205 = test system: COLO 205
# K562 = test system: K562
# SF-268 = test system: SF-268
# ACHN = test system: ACHN
# SNB-19 = test system: SNB-19
# BT-549 = test system: BT-549
# SF-295 = test system: SF-295
# DLD-1 = test system: DLD-1
# SNB-78 = test system: SNB-78
# DMS-273 = test system: DMS-273
# M19-MEL = test system: M19-MEL
# XF498 = test system: XF498
# LXFL 529 = test system: LXFL 529
# DMS-114 = test system: DMS-114
compound,measurement,setting,value
CC(C)SC1CC2C(CC1(C)O)C2(C)C (stereo not given),GI50,KM-20L2,4.3 µM (inactive)
O=C1C(NCCc2ccc(O)c(O)c2)=CC(=O)c2ncccc21,GI50,HCT-15,13.4 µM
same,GI50,OVCAR-8,13.4 µM (inactive)
same,GI50,UACC-257,5.36 µM (inactive)
same,GI50,SNB-75,5.96 µM (inactive)
same,GI50,HT-29,30.3 µM (inactive)
same,GI50,SK-MEL-5,2.93 µM (inactive)
same,GI50,OVCAR-4,16.9 µM (inactive)
same,GI50,KM12,13.2 µM (inactive)
same,GI50,RPMI-8226,16.6 µM (inactive)
same,GI50,NCI-H226,13.7 µM (inactive)
same,GI50,HCC 2998,13 µM (inactive)
same,GI50,NCI-H23,7.36 µM (inactive)
same,GI50,SW-620,14.4 µM (inactive)
same,GI50,MOLT-4,8.51 µM (inactive)
same,GI50,OVCAR-3,2.06 µM (inactive)
same,GI50,CAKI-1,5.52 µM (inactive)
same,GI50,Hs-578T,5.82 µM (inactive)
same,GI50,UACC-62,5.37 µM (inactive)
same,GI50,U-251,4.3 µM (inactive)
same,GI50,SR,9.98 µM (inactive)
same,GI50,SK-OV-3,15.7 µM (inactive)
same,GI50,A549,14.9 µM (inactive)
same,GI50,A498,20.7 µM (inactive)
same,GI50,SK-MEL-28,11.8 µM (inactive)
same,GI50,MCF7,4.02 µM (inactive)
same,GI50,HCT-116,12.2 µM (inactive)
same,GI50,SF-539,14.2 µM (inactive)
same,GI50,NCI-H522,2.36 µM (inactive)
same,GI50,MDA-MB-435,1.7 µM (inactive)
same,GI50,LOX IMVI,4.45 µM (inactive)
same,GI50,HOP-92,20.1 µM (inactive)
same,GI50,EKVX,17.6 µM (inactive)
same,GI50,SN12C,10.1 µM (inactive)
same,GI50,OVCAR-5,19.7 µM (inactive)
same,GI50,SK-MEL-2,3.1 µM (inactive)
same,GI50,IGROV-1,9.53 µM (inactive)
same,GI50,Malme-3M,4.95 µM (inactive)
same,GI50,RXF 393,13.8 µM (inactive)
same,GI50,T47D,22.7 µM (inactive)
same,GI50,HL-60,15.8 µM (inactive)
same,GI50,UO-31,11.4 µM (inactive)
same,GI50,M14,14.7 µM (inactive)
same,GI50,786-0,15.3 µM (inactive)
same,GI50,NCI/ADR-RES,14.4 µM (inactive)
same,GI50,MDA-N,2.03 µM (inactive)
same,GI50,DU-145,9.86 µM (inactive)
same,GI50,PC-3,21.9 µM (inactive)
same,GI50,TK-10,36.2 µM (inactive)
same,GI50,MDA-MB-231,5.14 µM (inactive)
same,GI50,CCRF-CEM,3.22 µM (inactive)
same,GI50,NCI-H460,9.46 µM (inactive)
same,GI50,HOP-62,19.2 µM (inactive)
same,GI50,COLO 205,14.7 µM (inactive)
same,GI50,K562,2.42 µM (inactive)
same,GI50,SF-268,13.3 µM (inactive)
same,GI50,ACHN,11.1 µM (inactive)
same,GI50,SNB-19,18.5 µM (inactive)
same,GI50,BT-549,4.28 µM (inactive)
same,GI50,SF-295,12.6 µM (inactive)
CS(=O)(=O)c1ccc(COP(N)(=O)N(CCCl)CCCl)cc1 (stereo not given),GI50,HCT-15,> 100 µM
same,GI50,DLD-1,> 100 µM (inactive)
same,GI50,OVCAR-8,> 100 µM (inactive)
same,GI50,UACC-257,> 100 µM (inactive)
same,GI50,SNB-75,> 100 µM (inactive)
same,GI50,HT-29,> 100 µM (inactive)
same,GI50,SK-MEL-5,> 100 µM (inactive)
same,GI50,OVCAR-4,> 100 µM (inactive)
same,GI50,KM12,> 100 µM (inactive)
same,GI50,RPMI-8226,> 100 µM (inactive)
same,GI50,NCI-H226,> 100 µM (inactive)
same,GI50,SNB-78,> 100 µM (inactive)
same,GI50,HCC 2998,> 100 µM (inactive)
same,GI50,NCI-H23,> 100 µM (inactive)
same,GI50,SW-620,> 100 µM (inactive)
same,GI50,MOLT-4,> 100 µM (inactive)
same,GI50,OVCAR-3,> 100 µM (inactive)
same,GI50,CAKI-1,> 100 µM (inactive)
same,GI50,DMS-273,> 100 µM (inactive)
same,GI50,KM-20L2,> 100 µM (inactive)
same,GI50,UACC-62,> 100 µM (inactive)
same,GI50,U-251,> 100 µM (inactive)
same,GI50,SR,> 100 µM (inactive)
same,GI50,SK-OV-3,> 100 µM (inactive)
same,GI50,A549,> 100 µM (inactive)
same,GI50,A498,> 100 µM (inactive)
same,GI50,SK-MEL-28,> 100 µM (inactive)
same,GI50,HCT-116,> 100 µM (inactive)
same,GI50,SF-539,> 100 µM (inactive)
same,GI50,NCI-H522,> 100 µM (inactive)
same,GI50,LOX IMVI,> 100 µM (inactive)
same,GI50,HOP-92,> 100 µM (inactive)
same,GI50,SN12C,> 100 µM (inactive)
same,GI50,OVCAR-5,> 100 µM (inactive)
same,GI50,SK-MEL-2,> 100 µM (inactive)
same,GI50,IGROV-1,> 100 µM (inactive)
same,GI50,Malme-3M,> 100 µM (inactive)
same,GI50,M19-MEL,> 100 µM (inactive)
same,GI50,RXF 393,> 100 µM (inactive)
same,GI50,XF498,> 100 µM (inactive)
same,GI50,UO-31,> 100 µM (inactive)
same,GI50,LXFL 529,> 100 µM (inactive)
same,GI50,M14,> 100 µM (inactive)
same,GI50,786-0,> 100 µM (inactive)
same,GI50,DMS-114,> 100 µM (inactive)
same,GI50,TK-10,> 100 µM (inactive)
same,GI50,CCRF-CEM,> 100 µM (inactive)
same,GI50,NCI-H460,> 100 µM (inactive)
same,GI50,HOP-62,> 100 µM (inactive)
same,GI50,COLO 205,> 100 µM (inactive)
same,GI50,K562,> 100 µM (inactive)
same,GI50,SF-268,> 100 µM (inactive)
same,GI50,ACHN,> 100 µM (inactive)
same,GI50,SNB-19,> 100 µM (inactive)
same,GI50,SF-295,> 100 µM (inactive)
